This is an account of results in US20080102476A1, “Analyzing Histamine H4 Receptor-Mediated Effects In Whole Blood” (priority 2003, published 2008).

Assay [1] relates to human eosinophils. Kind of assay: Eosinophil shape change in human PMNL by flow cytometry (GAFS assay). The class given is cell-based. Particulars: for effect on histamine-induced eosinophil shape change: antagonist 10 μM, 1 μM histamine 10 min; for IC50: Homo sapiens, Eosinophil, 1 μM histamine, FIG. 4B; for agonist effect on eosinophil shape change: FIG. 4C; for EC50: human PMNL, chemokines, FIG. 3D. Here is the method:
PMNL were prepared as described above and cells were resuspended in assay buffer (PBS containing 10 mM Ca^2+ and Mg^2+, 10 mM HEPES, 10 mM glucose, and 0.1% BSA, pH 7.2-7.4). Aliquots of cells (5×10^5 PMNL in 80 μl assay buffer) were pretreated with histamine receptor analogues (diphenhydramine, ranitidine, thioperamide, Compound A or H3 receptor antagonist) for 10 min at room temperature before addition of histamine or chemokines in 1.2-ml polypropylene cluster tubes (Costar, Cambridge, Mass.) in a final volume of 100 μl. The tubes were placed in a 37° C. water bath for 10 min (or as indicated), after which they were transferred to an ice-water bath, and 250 μl of ice-cold fixative (2% paraformaldehyde in PBS) was added to terminate the reaction and to maintain the cell shape change. […] Cell shape change was monitored in forward scatter signals. To identify eosinophils and neutrophils in PMNL, cells were stained on ice for 30 min with saturating concentrations of FITC-conjugated anti-CCR3 or anti-CD16 antibodies, which are specific for eosinophils or neutrophils, respectively. Samples after antibody staining were analyzed in flow cytometry.
A general note: In flow cytometry, cells or beads pass a laser one at a time.

The test system of assay [2] is human eosinophils. Kind of assay: Cell surface expression of adhesion molecules on eosinophils by flow cytometry. The class given is cell-based. Particulars: antagonist 10 μM. How it is done:
Purified eosinophils were used to study cell surface expression of adhesion molecules. Eosinophils were resuspended in PBS containing 10 mM Ca^2+ and Mg^2+, 10 mM HEPES, 10 mM glucose, and 0.1% BSA, pH 7.2-7.4. Aliquots of cells (5×10^5 PMNL) were pretreated with histamine receptor analogues (as described above) for 10 min before addition of histamine or chemokines in 1.2-ml polypropylene cluster tubes (Costar, Cambridge, Mass.) in a final volume of 100 μl. The tubes were placed in a 37° C. water bath for 10 min (or as indicated), after which they were transferred to an ice-water bath, and 250 μl of ice-cold fixative (0.5% paraformaldehyde in PBS) was added. Samples were then incubated on ice for 30 min with saturating concentration of either FITC or phycoerytherine-conjugated anti-CD11a, anti-CD11b or anti-CD54 antibodies, washed, and then analyzed by flow cytometry.

Assay [3] relates to purified human eosinophils. Kind of assay: In vitro eosinophil chemotaxis assay (Transwell). The format is cell-based. Particulars: for effect on histamine-induced eosinophil chemotaxis: antagonist 10 μM in both chambers; for IC50: Homo sapiens, Eosinophil, 1 μM histamine in lower chamber, read-out: IC50 in blocking 1 μM histamine-induced eosinophil chemotaxis; for EC50: Transwell, 2 h. How it is done: Transwells (Costar, Cambridge, Mass.) with 5 μm pore size were coated with 100 μl of 100 ng/ml human fibronectin (Sigma) for 2 h at room temperature. After removal of excess fibronectin, 600 μl of RPMI-1640 medium containing 0.5% BSA and different concentrations of histamine (0.01-100 μM) was added to the bottom chamber, Eosinophils (2×10^5/well) were added to the top chamber. Histamine receptor analogues (diphenhydramine, ranitidine, thioperamide, Compound A or Compound B) were added to both the top and bottom chambers to a final concentration of 10 μM or at other concentration as stated in figure legends. The plates were incubated for 2 h at 37° C. and the number of cells migrated to the bottom chamber was counted for 1 min using flow cytometer.

The subject of assay [4] is human eosinophils. Particulars: cited from earlier work.
Assay [5] relates to eosinophils in human whole blood. As to the kind of experiment: Whole blood eosinophil shape change GAFS assay (Example 1A). The format is cell-based. To be noted: for agonist effect on eosinophil shape change in whole blood: FIGS. 9A and 9B. How it is done: Starting materials were obtained as described in the experiments above. Human whole blood samples were used to study eosinophil shape change response. Human blood samples collected from healthy donors were treated with 3.8% tri-sodium citrate as anti-coagulator (or other anti-coagulators) and centrifuges at 300 rpm. The samples were used for experiments within 1 hour. Aliquots of 80 μl whole blood were pretreated with histamine receptor analogues (such as H1 receptor antagonist diphenhydramine, H2 antagonist ranitidine, H4 receptor antagonists thioperamide and Compound A, and H3 receptor antagonist Compound B) for 10 minutes before addition of histamine or chemokines in 1.2-ml polypropylene cluster tubes (Costar, Cambridge, Mass.) in a final volume of 100 μl. The tubes were placed in a 37° C. water bath for 10 min, after which they were transferred to an ice-water bath, and 250 μl of ice-cold fixative (2% paraformaldehyde in PBS or other fixatives) was added to terminate the reaction and to maintain the cell shape change. Red cells were lysed with 3 ml Qiagen lysis solution (Qiagen, Valencia, Calif.) for 10 minutes at 4° C. Leukocytes were recovered by centrifugation at 2000 rpm for 5 minutes, washed once with either PBS containing 10 mM Ca^2+ and Mg^2+, 10 mM HEPES, 10 mM glucose, and 0.1% BSA (for FIGS. 10 and 11) or PBS containing 0.5% BSA and 2 mM EDTA (for other figures), and then resuspended in the same buffer. The cell shape change was analyzed on a FACScan flow cytometer (Becton Dickinson, Mountain View, Calif.). Eosinophils were gated based on their high autofluorescence relative to neutrophils and shape change was monitored in forward scatter signals. Data were acquired for 1500 high-fluorescence eosinophil events. The results are expressed as the percentage increase in FSC compared to unstimulated cells. Results obtained are provided in the Tables I and II, below, which also correspond to FIG. 7 and FIG. 8, respectively.

Assay [6] shares this test system. Kind of assay: Whole blood eosinophil shape change assay with ranitidine co-treatment (Example 1B). The format is cell-based. Particulars: FIG. 11. How it is done: In this example, starting materials were obtained as described in Example 1A. Human whole blood samples were used to study eosinophil shape change response. Human blood samples collected from healthy donors were treated with 3.8% tri-sodium citrate as anti-coagulator (or other anti-coagulators) and centrifuges at 300 rpm. The samples were used for experiments within 1 hour. […] The cell shape change was analyzed on a FACScan flow cytometer (Becton Dickinson, Mountain View, Calif.). Eosinophils were gated based on their high autofluorescence relative to neutrophils and shape change was monitored in forward scatter signals. Data were acquired for 1500 high-fluorescence eosinophil events. Results are expressed as the percentage increase in FSC compared to unstimulated cells.

[7] abbreviates: read-out: IC50 in blocking 1 μM histamine-induced eosinophil shape change.
[8] abbreviates: histamine 0.1 uM + compound A 10 uM.
Setting [9] is: histamine 1 uM + compound A 10 uM.
Where [10] appears, read: histamine 10 uM + compound A 10 uM.

Like-named read-outs stand apart in the source and are kept apart here.

`CN(C)CCOC(c1ccccc1)c1ccccc1` [diphenhydramine]: the “effect on histamine-induced eosinophil shape change” value in assay [1] is on record as “did not show any inhibitory effects”. In assay [2], the “effect on histamine-induced up-regulation of CD11b/CD18 and CD54 expression” value (shortened to “effect … of CD11b/CD18 and CD54 expression”) is listed as “ineffective”. Moreover, in assay [3], the “effect on histamine-induced eosinophil chemotaxis” value was “minimal”.
What is called IC50 is the concentration that gives 50% inhibition. As to `S=C(NC1CCCCC1)N1CCC(c2cnc[nH]2)CC1` [thioperamide], the 50% inhibitory concentration (IC50) in assay [1] (setting [7]) amounted to 128 nM. The “effect on histamine-induced eosinophil shape change” value in assay [1] is recorded as “blocked the histamine-induced eosinophil shape change completely”. In addition, the “effect … of CD11b/CD18 and CD54 expression” value in assay [2] is “abolished”. Also, in assay [3], the IC50 is 519 nM and the “effect on histamine-induced eosinophil chemotaxis” value is reported as “inhibited completely”. The “effect on eosinophil chemotaxis toward histamine” value in assay [4] is “blocked”.
In the case of `NC(=NCc1ccc(Cl)cc1)SCCCc1cnc[nH]1` [clobenpropit], the “agonist effect on eosinophil shape change” value in assay [1] was “partial shape change”. Moreover, the “agonist effect on eosinophil shape change in whole blood” value in assay [5] is reported as “mimic histamine in inducing eosinophil shape change”.
On to `Cc1ccn2cc(-c3ccc(OCCCN4CCCCC4)cc3)nc2c1` [Compound B, 7-methyl-2-[4-(3-piperidin-1-yl-propoxy)-phenyl]-imidazo[1,2-a]pyridine], for which, in assay [1] (read-out: IC50 in blocking 1 μM histamine-induced eosinophil shape change (ineffective up to)), the IC50 is above 30000 nM. The “effect on histamine-induced eosinophil shape change” value in assay [1] is reported as “did not show any inhibitory effects”. Besides, the “effect … of CD11b/CD18 and CD54 expression” value in assay [2] was “ineffective”. Moreover, the “effect on histamine-induced eosinophil chemotaxis” value in assay [3] is on record as “minimal”.
On to `CN1CCN(C(=O)c2cc3cc(Cl)ccc3[nH]2)CC1` [Compound A, (5-chloro-1H-indol-2-yl)-(4-methyl-piperazin-1-yl)-methanone], for which the half-maximal inhibitory concentration (IC50) was 270 nM in assay [1] (setting [7]) and 86 nM in assay [3]. Also, the “effect on histamine-induced eosinophil shape change” value in assay [1] is on record as “blocked the histamine-induced eosinophil shape change completely”. For the same molecule, the “effect … of CD11b/CD18 and CD54 expression” value in assay [2] is “abolished”. Further, in assay [3], the “effect on histamine-induced eosinophil chemotaxis” value is “inhibited completely”. Besides, the “GeoMean (FSC of eosinophils)” value in assay [5] (histamine 0.00 uM + Compound A 10 uM) stood at 268.1; in assay [5] (setting [8]), 272.1; in assay [5] (setting [9]) it was 270.9; in assay [5] (setting [10]), 267.3. Also, the “% change (increase in FSC compared to unstimulated cells)” value in assay [5] (histamine 0 uM + compound A 10 uM) was 0.0%; in assay [5] (setting [8]) it was 1.5%; in assay [5] (setting [9]), 1.1%; in assay [5] (setting [10]) it was −0.3%. Besides, the “effect on eosinophil shape changes induced by histamine from 0.1 to 10 μM” value in assay [5] (whole blood, FIG. 8) is “blocked”. The “effect on H4 receptor-dependent shape change (histamine + ranitidine)” value in assay [6] is on record as “antagonized”.
With `N=C(N)SCCc1cnc[nH]1` [imetit], the “agonist effect on eosinophil shape change” value in assay [1] is recorded as “partial shape change”. The “agonist effect on eosinophil shape change in whole blood” value in assay [5] is on record as “mimic histamine in inducing eosinophil shape change”.
By EC50 is commonly meant the midpoint of the concentration-response curve. Read a low EC50 as higher potency in that assay. As to “eotaxin: chemokine purchased from R&D Systems”, it took 0.017 nM to reach a half-maximal effect in assay [1] (EC50).
Consider “MCP-3: chemokine purchased from R&D Systems”, for which the concentration giving a half-maximal response (EC50) in assay [1] came to 0.202 nM; in assay [3], 43 nM.

B1: eotaxin-2: chemokine, positive control in the whole blood assay (protein, UniProt O00175 27-119, looked up)
C-C motif chemokine 24: VVIPSPCCMFFVSKRIPENRVVSYQLSSRSTCLKAGVIFTTKKGQQFCGDPKQEWVQRYMKNLDAKQKKASPRARAVAVKGPVQRYPGNQTTC
With B1, the 50% effective concentration (EC50) was determined as 0.021 nM in assay [1] and 1.9 nM in assay [3]. In addition, the “% change (increase in FSC compared to unstimulated cells)” value was 3.5% in assay [5] (Eotaxin2 0.01 nM); 1.0% in assay [5] (Eotaxin2 0.1 nM); 26.3% in assay [5] (Eotaxin2 1 nM); 53.4% in assay [5] (Eotaxin2 10 nM); 19.4% in assay [5] (Eotaxin2 100 nM). In addition, the “GeoMean (FSC of eosinophils)” value in assay [5] (Eotaxin2 0.01 nM) was found to be 233.4; in assay [5] (Eotaxin2 0.1 nM), 227.7; in assay [5] (Eotaxin2 1 nM), 284.7; in assay [5] (Eotaxin2 10 nM), 346.0; in assay [5] (Eotaxin2 100 nM), 269.3.
